Assay results: ChEMBL document CHEMBL5512615, “Targeting autophagy drug discovery: Targets, indications and development trends” (Eur J Med Chem, 2024)
Where a SMILES comes first, the peptide text is derived from it. [ ]: non-standard residue; d: D form. pY = N[C@@H](Cc1ccc(OP(=O)(O)O)cc1)C(=O)O

What was measured:
[1] = molecular target: T1, Testis-expressed protein 264 (Homo sapiens, UniProt Q9Y6I9)
T1 sequence (Q9Y6I9 whole entry): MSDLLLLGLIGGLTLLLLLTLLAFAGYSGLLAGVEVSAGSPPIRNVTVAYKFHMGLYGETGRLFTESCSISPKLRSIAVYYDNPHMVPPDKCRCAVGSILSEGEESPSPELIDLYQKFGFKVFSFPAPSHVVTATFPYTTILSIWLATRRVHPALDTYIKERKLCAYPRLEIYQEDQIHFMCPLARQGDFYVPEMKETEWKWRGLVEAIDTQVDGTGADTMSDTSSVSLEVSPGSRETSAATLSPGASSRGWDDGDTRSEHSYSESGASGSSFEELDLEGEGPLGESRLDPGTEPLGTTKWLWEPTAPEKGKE
Description: Inhibition of TEX264 (unknown origin)

cells [2] = details: Homo sapiens, NCI-H1975
Description: Inhibition of MAPK/ERK signaling pathway in human NCI-H1975 cells

Tubulin = details: k562
Description: Inhibition of microtubule polymerization in human K562 cells measured for 60 mins by fluorescence based analysis

[3] = molecular target: T2, 5'-AMP-activated protein kinase catalytic subunit alpha-2 (Homo sapiens, UniProt P54646)
cells [4] = details: Homo sapiens, HK-2, 6 h
Description: Downregulation of BNIP3 expression in human HK-2 cells incubated for 6 hrs by Western blot analysis

HCT-116 = assay: cells; details: Homo sapiens, HCT-116, 24 h
Description: Induction of autophagy in human HCT-116 cells assessed as increase in p62 expression upto 5 uM incubated for 24 hrs by Western blot analysis

[5] = molecular target: T2, 5'-AMP-activated protein kinase catalytic subunit alpha-2; remark: listed apart in the source
Description: Agonist activity at AMPK (unknown origin)

[6] = molecular target: Phosphatidylinositol 3-kinase catalytic subunit type 3 (Homo sapiens, UniProt Q8NEB9)
Description: Inhibition of human PIK3C3 using PI as substrate by ADP-Glo assay

[7] = molecular target: T3, Phosphatidylinositol 4,5-bisphosphate 3-kinase catalytic subunit alpha isoform (Homo sapiens, UniProt P42336)
Description: Inhibition of PI3Kalpha (unknown origin) by kinase profiling assay

Translocator protein [8] = molecular target: T4, Translocator protein (Mus musculus, UniProt P50637); assay: Binding affinity to mouse TSPO expressed in Escherichia coli assessed as inhibition constant
[9] = molecular target: T5, Tumour suppressor protein p53/Mdm4 (Homo sapiens, UniProt O15151+P04637)
Description: Binding affinity to MDM4/p53 interaction (unknown origin) assessed as inhibition constant

[10] = molecular target: T5, Tumour suppressor protein p53/Mdm4; remark: listed apart in the source
Description: Inhibition of MDM4/p53 (unknown origin)

cells [11] = details: Homo sapiens, PC-3
Description: Inhibition of V-ATPase activity in lysosomes of human PC-3 cells

[12] = molecular target: T2, 5'-AMP-activated protein kinase catalytic subunit alpha-2; remark: listed apart in the source
Description: Inhibition of AMPK signalling pathway in human HepG2 cells

[13] = molecular target: Tumour suppressor p53/oncoprotein Mdm2 (Homo sapiens, UniProt P04637+Q00987)
Description: Inhibition of MDM2/p53 interaction (unknown origin)

[14] = molecular target: T2, 5'-AMP-activated protein kinase catalytic subunit alpha-2; remark: listed apart in the source
Description: Binding affinity to AMPK (unknown origin) assessed as inhibition constant

Cysteine protease ATG4B = molecular target: T6, Cysteine protease ATG4B (Homo sapiens, UniProt Q9Y4P1)
T6 sequence (Q9Y4P1 whole entry): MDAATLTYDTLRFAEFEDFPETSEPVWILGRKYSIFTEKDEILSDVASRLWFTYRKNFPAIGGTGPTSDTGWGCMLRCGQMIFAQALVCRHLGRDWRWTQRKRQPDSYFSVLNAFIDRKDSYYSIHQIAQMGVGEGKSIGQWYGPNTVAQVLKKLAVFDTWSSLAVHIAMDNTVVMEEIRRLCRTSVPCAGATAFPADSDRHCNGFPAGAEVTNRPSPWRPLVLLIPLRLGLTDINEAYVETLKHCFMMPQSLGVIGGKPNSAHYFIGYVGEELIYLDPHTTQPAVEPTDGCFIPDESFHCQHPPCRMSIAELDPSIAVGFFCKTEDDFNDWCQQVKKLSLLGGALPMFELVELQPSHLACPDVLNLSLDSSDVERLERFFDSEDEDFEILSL
Description: Inhibition of ATG4B (unknown origin) using pim-FG-PABA-AMC as substrate by fluorescence based assay

PC-12 = assay: cells; details: Rattus norvegicus
Description: Neuroprotective activity against rat PC12 cells assessed as decrease in H2O2-induced intracellular Ca2+ level preincubated for 12 hrs followed by H2O2-stimulation and measured after 12 hrs by Fluo-3 AM dye based flow cytometry

[15] = molecular target: Serine/threonine-protein kinase mTOR (Homo sapiens, UniProt P42345)
Description: Inhibition of human mTORC1 incubated for 90 mins by Lanthascreen time-resolved FRET assay

Translocator protein [16] = molecular target: Translocator protein (Rattus norvegicus, UniProt P16257)
[17] = molecular target: T3, Phosphatidylinositol 4,5-bisphosphate 3-kinase catalytic subunit alpha isoform; remark: listed apart in the source
Description: Inhibition of PI3Kalpha (unknown origin)

Translocator protein [18] = molecular target: T4, Translocator protein
[19] = molecular target: T2, 5'-AMP-activated protein kinase catalytic subunit alpha-2; remark: listed apart in the source
Description: Inhibition of AMPK (unknown origin)

## O=C(Oc1cccc(/C=N/Nc2nc(Nc3ccccc3)nc(N3CCOCC3)n2)c1)c1ccco1
[1]
  IC50: 10 nM

## CC[C@@H]1[C@@H](C)O[C@@](O)([C@@H](C)[C@H](O)[C@H](C)[C@H]2OC(=O)/C=C/C=C/[C@H](C)[C@@H]([C@@H](C)[C@@H](O)[C@H](C)[C@@]3(O)C[C@@H](O[C@H]4C[C@H](O)[C@H](O)[C@H](C)O4)[C@H](CC)[C@@H](C)O3)OC(=O)/C=C/C=C/[C@@H]2C)C[C@H]1O[C@H]1C[C@H](O)[C@H](O)[C@H](C)O1
Cells [2]
  IC50: 4.2 nM

## CCOC(=O)c1[nH]c(Br)c(-c2ccc(OC)c(OC)c2)c1Br
Tubulin
  IC50: 360 nM

## CNC(=O)c1ccccc1Oc1nc(Nc2cc(OC)c(OC)c(OC)c2)ncc1Br
[3]
  IC50: 108 nM

## Cc1ccc(NC(=O)NCc2ccc3c(c2)CN(C2CCC(=O)NC2=O)C3=O)cc1Cl (stereo unspecified)
Cells [4]
  IC50: 2 nM

## CC(=O)N[C@@H](CC(C)C)C(=O)N[C@@H](CC(C)C)C(=O)N[C@H](C=O)CCCNC(=N)N
HCT-116
  IC50: 2500 nM

## N#CC1C(=O)Nc2scc(-c3ccc(-c4ccccc4O)cc3)c2C1=O (stereo unspecified)
[5]
  EC50: 800 nM

## CN(Cc1ccccc1)S(=O)(=O)c1cc(C(=O)O)c(NCc2ccco2)cc1Cl
[1]
  IC50: 15 nM

## CC(=O)O[C@H]1C(=O)[C@]2(C)[C@H](O)C[C@H]3OC[C@@]3(OC(C)=O)[C@H]2[C@H](OC(=O)c2ccccc2)[C@]2(O)C[C@H](OC(=O)[C@H](O)[C@@H](NC(=O)c3ccccc3)c3ccccc3)C(C)=C1C2(C)C
Cells [2]
  IC50: 5 nM

## C[C@@H]1COCCN1c1cc(N2CCCC[C@@H]2C(F)(F)F)[nH]c(=O)c1
[6]
  IC50: 14 nM

## BrNc1nc(N/N=C\c2c[nH]c3ccccc23)nc(N2CCOCC2)n1
HCT-116
  IC50: 300 nM

## OCc1c(C2CC2)nc2ccccc2c1-c1ccc(F)cc1
[5]
  EC50: 300 nM

## CC[C@H](C)[C@H](NC(=O)[C@H](CCCCN)NC(=O)[C@@H](NC(=O)[C@H](CCC(N)=O)NC(=O)[C@@H](N)CCCNC(=N)N)[C@@H](C)CC)C(=O)N[C@@H](Cc1c[nH]c2ccccc12)C(=O)N[C@@H](Cc1ccccc1)C(=O)N[C@@H](CCC(N)=O)C(=O)N[C@@H](CC(N)=O)C(=O)N[C@@H](CCCNC(=N)N)C(=O)N[C@@H](CCCNC(=N)N)C(=O)N[C@@H](CCSC)C(=O)N[C@@H](CCCCN)C(=O)N[C@@H](Cc1c[nH]c2ccccc12)C(=O)N[C@@H](CCCCN)C(=O)N[C@@H](CCCCN)C(=O)N[C@@H](CO)C(=O)N[C@@H](CC(=O)O)C(=O)NCC(=O)NCC(=O)N[C@@H](Cc1ccc(OP(=O)(O)O)cc1)C(=O)N[C@@H](CCSC)C(=O)N[C@@H](CC(=O)O)C(=O)N[C@@H](CCSC)C(=O)N[C@@H](CO)C(=O)O (H-RQIKIWFQNRRMKWKKSDGG[pY]MDMS-OH)
[7]
  IC50: 30000 nM

## C=CC(C1=CC(=O)C(OC)=CC1=O)c1ccccc1 (stereo unspecified) [4-METHOXYDALBERGIONE]
Cells [2]
  IC50: 2230 nM

## CC[C@@H](C)N(C)C(=O)c1cc2ccccc2c(-c2ccccc2Cl)n1 [(R)PK-11195]
Translocator protein [8]
  Ki: 0.4 nM

## CN(C)CC[C@H](CSc1ccccc1)Nc1ccc(S(=O)(=O)NC(=O)c2ccc(N3CCN(Cc4ccccc4-c4ccc(Cl)cc4)CC3)cc2)cc1[N+](=O)[O-] [ABT 737]
[9]
  Ki: 0.8 nM

## COc1ccc(S(=O)(=O)Nc2cccnc2Nc2ccc(O)cc2)cc1 [ABT-751]
Tubulin
  IC50: 700 nM

## C[C@]12CCC(=O)C=C1CC[C@@H]1[C@@H]2[C@@H](O)C[C@]2(C=O)[C@@H](C(=O)CO)CC[C@@H]12 [ALDOSTERONE]
[5]
  EC50: 1.3 nM

## C=CCS[S+]([O-])CC=C (stereo unspecified) [ALLICIN]
[10]
  IC50: 11 nM

## CO/C1=C\C(C)=C\[C@@H](C)[C@@H](O)[C@@H](C)C/C(C)=C/C=C/[C@H](OC)[C@@H]([C@@H](C)[C@@H](O)[C@H](C)[C@@]2(O)C[C@@H](O)[C@H](C)[C@@H](C(C)C)O2)OC1=O [BAFILOMYCIN A1]
Cells [11]
  IC50: 0.06 nM

## COc1ccc2cc3[n+](cc2c1OC)CCc1cc2c(cc1-3)OCO2 [BERBERINE]
[12]
  IC50: 12000 nM

## CC(C)=CCC/C(C)=C/Cc1c(O)cc2c(c1O)C(=O)C[C@@H](c1ccc(O)cc1)O2 [BONANNIONE A]
[13]
  IC50: 3700 nM

## C=C1C(=O)O[C@@H]2/C=C(\C)CC/C=C(\C)CC[C@@H]12 [COSTUNOLIDE]
Cells [2]
  IC50: 2100 nM

## c1cc(-c2cnn3cc(-c4ccc(OCCN5CCCCC5)cc4)cnc23)ccn1 [DORSOMORPHIN]
[14]
  Ki: 109 nM

## O=c1c2ccccc2[se]n1-c1ccccc1 [EBSELEN]
Cysteine protease ATG4B
  IC50: 180 nM

## O=C(O[C@@H]1Cc2c(O)cc(O)cc2O[C@@H]1c1cc(O)c(O)c(O)c1)c1cc(O)c(O)c(O)c1 [EPIGALOCATECHIN GALLATE]
PC-12
  IC50: 30 nM

## CO[C@H]1C[C@@H]2CC[C@@H](C)[C@@](O)(O2)C(=O)C(=O)N2CCCC[C@H]2C(=O)O[C@H]([C@H](C)C[C@@H]2CC[C@@H](OCCO)[C@H](OC)C2)CC(=O)[C@H](C)/C=C(\C)[C@@H](O)[C@@H](OC)C(=O)[C@H](C)C[C@H](C)/C=C/C=C/C=C/1C [EVEROLIMUS]
[15]
  IC50: 150 nM

## CCN(CCO)CCCC(C)Nc1ccnc2cc(Cl)ccc12 (stereo unspecified) [HYDROXYCHLOROQUINE]
Cells [11]
  IC50: 0.21 nM

## CC(C(O)c1ccc(O)cc1)N1CCC(Cc2ccccc2)CC1 (stereo unspecified) [IFENPRODIL]
Translocator protein [16]
  IC50: 0.73 nM

## O=C1C[C@@H](c2ccc(O)cc2)Oc2cc(O)ccc21 [LIQUIRTIGENIN]
Tubulin
  IC50: 340 nM

## COC(=O)C1=C(C)NC(C)=C(C(=O)OC)C1c1ccccc1[N+](=O)[O-] [NIFEDIPINE]
Translocator protein [16]
  IC50: 0.5 nM

## COc1cc2c(cc1OC)-c1c(OC)c(OC)cc3ccnc(c13)C2=O [OXOGLAUCINE]
Translocator protein [16]
  IC50: 300 nM

## Cc1[nH]c2ccccc2c1CCNCc1ccc(/C=C/C(=O)NO)cc1 [PANOBINOSTAT]
[6]
  IC50: 5 nM

## COc1ccc2cc1Oc1ccc(cc1)C[C@@H]1c3cc(c(OC)cc3CCN1C)Oc1c(OC)c(OC)cc3c1[C@@H](C2)N(C)CC3 [PHAEANTHINE]
[13]
  IC50: 179 nM

## Oc1cc(O)c2c(c1)O[C@@]1(c3ccc(O)c(O)c3)Oc3cc(O)c4c(c3[C@@H]2[C@H]1O)O[C@H](c1ccc(O)c(O)c1)[C@@H](O)C4 [PROANTHOCYANIDIN A1]
[5]
  EC50: 5100 nM

## O=C(Nc1ccc(Oc2ccc(Cl)cc2)c(Cl)c1)c1cc(I)cc(I)c1O [RAFOXANIDE]
[17]
  IC50: 13000 nM

## Oc1ccc(/C=C/c2cc(O)cc(O)c2)cc1 [RESVERATROL]
[3]
  IC50: 50000 nM

## Cc1nc(C(=O)NCC(=O)O)c(O)c2ccc(Oc3ccccc3)cc12 [ROXADUSTAT]
Cells [4]
  IC50: 10 nM

## COc1ccc(-c2cc(=O)c3c(OC)c(OC)c(OC)cc3o2)cc1OC [SINENSETIN]
[13]
  IC50: 3200 nM

## NCCCCNCCCN [SPERMIDINE]
Cells [11]
  IC50: 112000 nM

## Cn1nccc1Nc1nccc(-c2cc3c(s2)C(C)(C)N(CCN2CCOCC2)C3=O)n1 [TEMUTERKIB]
Cells [2]
  IC50: 5 nM

## CC(C)(C)c1ccc(C(O)CCCN2CCC(C(O)(c3ccccc3)c3ccccc3)CC2)cc1 (stereo unspecified) [TERFENADINE]
Translocator protein [18]
  IC50: 1 nM

## Clc1ccc(C(Cn2ccnc2)OCc2ccsc2Cl)c(Cl)c1 (stereo unspecified) [TIOCONAZOLE]
Cysteine protease ATG4B
  IC50: 1300 nM

## OC[C@H]1O[C@@H](Oc2ccc3c(c2)OC[C@H]2c4cc5c(cc4O[C@@H]32)OCO5)[C@H](O)[C@@H](O)[C@@H]1O [TRIFOLIRHIZIN]
[19]
  IC50: 506000 nM

## CC(C)Nc1cc(-c2c[nH]c(C(=O)N[C@H](CO)c3cccc(Cl)c3)c2)c(Cl)cn1 [ULIXERTINIB]
Cells [2]
  IC50: 300 nM

## C[C@H]1CCCC(=O)CCC/C=C/c2cc(O)cc(O)c2C(=O)O1 [ZEARALENONE]
Translocator protein [18]
  IC50: 500 nM
